Structures can show the parent of a compound that is named as a salt. Marks after values point to notes of the source that are not given here.
Tests used:
Assay type in all cases: physicochemical
[1] = Compound 1 hydrochloride polymorph screening; conditions: nine polymorphs (Forms I-IX) identified by standard polymorph screening
[2] = Solubility measurement at 50° C. (HPLC of saturated solution); conditions: for Solubility (50° C.): monohydrochloride dihydrate; for solubility: 50 °C, organic solvent or mixture
Experimental: (§1) The solubility of the Compound 1 HCl sample (prepared according to Example 4) was measured according to the procedure for solubility at 25° C. in Table 8 and the procedure for solubility at 50° C. in Table 9.

[3] = Solubility measurement at 25° C. (HPLC of saturated solution); conditions: for solubility: 25 °C, organic solvent or mixture; for Solubility (25° C.): monohydrochloride dihydrate
Experimental: as §1

[4] = 2-Methoxyethanol, by visual assessment
[5] = Dimethylformamide, by visual assessment
[6] = n-Propanol, by visual assessment

Cc1nc2c(F)c(-c3cccc(Cl)c3Cl)c(CCC#N)cc2c2c1cc(C1CC3C[C@H]3N1C(=O)C1CC1)n2C1[C@H]2CN[C@@H]1C2 (atropisomer, axis not shown; (Ra)) [Compound 1 HCl, 3-((Ra)-1-((1R,4R,5S)-2-azabicyclo[2.1.1]hexan-5-yl)-2-((1R,3R,5R)-2-(cyclopropanecarbonyl)-2-azabicyclo[3.1.0]hexan-3-yl)-7-(2,3-dichlorophenyl)-6-fluoro-4-methyl-1H-pyrrolo[3,2-c]quinolin-8-yl)propanenitrile monohydrochloride dihydrate]
Relative stability of crystalline forms of Compound 1 HCl [1]: most stable form
Solubility (50° C.) [2, 4]: >50* mg/mL
solubility ([2]; 2-methoxyethanol, by visual assessment): > 50 mg/mL
Solubility (50° C.) ([2]; 3% MeOH 0.3% water in EtOAc): 0.8 mg/mL
solubility ([2]; 3% MeOH, 0.3% water in EtOAc, 3% MeOH 0.3% water in EtOAc): < 1 mg/mL
Solubility (50° C.) ([2]; Acetone): 19.2 mg/mL
Solubility (50° C.) ([2]; Chloroform): 21.2 mg/mL
solubility ([2]; DMSO, by visual assessment): > 50 mg/mL
Solubility (50° C.) ([2]; DMSO, by visual assessment): >50* mg/mL
Solubility (50° C.) [2, 5]: >50* mg/mL
solubility ([2]; EtOH): 15 to 50 mg/mL
Solubility (50° C.) ([2]; EtOH): 22.3 mg/mL
solubility ([2]; Ethyl formate): < 1 mg/mL
Solubility (50° C.) ([2]; Ethyl formate): 0.6 mg/mL
solubility ([2]; MeOH, by visual assessment): > 50 mg/mL
Solubility (50° C.) ([2]; MeOH, by visual assessment): >50* mg/mL
solubility ([2]; acetone): 15 to 50 mg/mL
solubility ([2]; chloroform): 15 to 50 mg/mL
solubility ([2]; dimethylformamide, by visual assessment): > 50 mg/mL
solubility ([2]; heptane): 0.02 mg/mL
Solubility (50° C.) ([2]; iso-Propanol (IPA), by visual assessment): >50* mg/mL
solubility ([2]; iso-propanol (IPA), by visual assessment): > 50 mg/mL
solubility ([2]; n-BuOH, by visual assessment): > 50 mg/mL
Solubility (50° C.) ([2]; n-BuOH, by visual assessment): >50* mg/mL
solubility [2, 6]: > 50 mg/mL
Solubility (50° C.) [2, 6]: >50* mg/mL
solubility [3, 4]: > 50 mg/mL
Solubility (25° C.) [3, 4]: >50* mg/mL
solubility ([3]; DMSO, by visual assessment): > 50 mg/mL
Solubility (25° C.) ([3]; DMSO, by visual assessment): >50* mg/mL
solubility [3, 5]: > 50 mg/mL
Solubility (25° C.) [3, 5]: >50* mg/mL
solubility ([3]; MeOH, by visual assessment): > 50 mg/mL
Solubility (25° C.) ([3]; MeOH, by visual assessment): >50* mg/mL
solubility ([3]; Methyl iso-butyl ketone): 1 to 15 mg/mL
Solubility (25° C.) ([3]; Methyl iso-butyl ketone): 1.3 mg/mL
solubility ([3]; Tetrahydrofuran (THF)): < 1 mg/mL
Solubility (25° C.) ([3]; Tetrahydrofuran (THF)): 0.9 mg/mL
solubility ([3]; heptane): 0.01 mg/mL
solubility ([3]; n-BuOH, by visual assessment): > 50 mg/mL
Solubility (25° C.) ([3]; n-BuOH, by visual assessment): >50* mg/mL

Reference: patent publication US20250115603A1, “CRYSTALLINE FORMS OF A KRAS INHIBITOR” (Incyte Corporation, priority 2023, published 2025)
